A word on the Kd: it is the concentration at which binding is half-saturated. In general, Km refers to the concentration of substrate that gives half-maximal velocity.

One series has as its target T1, RhdA (Azotobacter vinelandii, UniProt P52197).
T1 construct: His-tagged (pQER1) from E. coli BL21[pRep4], Ni-NTA purified; cyanide-treated (sulfane sulfur-deprived); only cysteine Cys230
Nature of the series: intrinsic tryptophan fluorescence titration. Format: binding.

The test system of series [1] is N[C@@H](CCC(=O)N[C@@H](C[S])C(=O)NCC(=O)O)C(=O)O. Nature of the series: purified protein. The settings on record: pH 7.4; 25.0 °C.

T1 sequence (P52197 whole entry): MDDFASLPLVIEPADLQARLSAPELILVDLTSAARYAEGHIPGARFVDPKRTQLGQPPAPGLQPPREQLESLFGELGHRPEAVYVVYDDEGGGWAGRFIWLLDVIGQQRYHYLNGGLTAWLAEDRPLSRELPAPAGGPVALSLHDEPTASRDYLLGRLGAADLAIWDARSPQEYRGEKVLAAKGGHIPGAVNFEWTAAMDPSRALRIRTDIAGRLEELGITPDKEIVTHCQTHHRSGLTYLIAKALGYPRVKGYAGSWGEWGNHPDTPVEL

In turn, `O=S(O)(O)=S` [thiosulfate] displayed a Kd at RhdA of 0.76 ± 0.01 µM. Turning to `N[C@@H](CCC(=O)N[C@@H](C[S])C(=O)NCC(=O)O)C(=O)O` [GS^•, glutathione thiyl radical], the Kd on RhdA was around 11 µM.

As to RhdA (Azotobacter vinelandii), the Km in series [1] came out at 560 ± 110 µM.

The values above are taken from publication PMC3458005, “Involvement of the Azotobacter vinelandii Rhodanese-Like Protein RhdA in the Glutathione Regeneration Pathway” (PLoS ONE, 2012).
